Experiments:
[1] = tested on: Oryctolagus cuniculus; experiment: Regulation of fertility in rabbit assessed as fetal loss 90 mg/kg; assay type: functional
[2] = tested on: Oryctolagus cuniculus; experiment: Regulation of fertility in rabbit assessed as fetal loss 60 mg/kg; assay type: functional

Compound: COc1cccc2c1ccc1c(C(=O)O)cc3c(c12)OCO3 [ARISTOLIC ACID]
- Activity [1]: 80%
- Activity [2]: 80%

From ChEMBL document CHEMBL1145661, “Studies on Aristolochia, I. Conversion of Aristolochic Acid-I to Aristolic Acid-One-Step Removal of a Nitro Group” (1983)
